The test system of one data set is HT-29 colon tumor cells. Briefly: Cell growth inhibition, 3 d exposure, cell counting. Format: cell-based. The following applies: Homo sapiens, 72 h. Here is the method:
(§1) One ml of this cell suspension was added to each well of a 12 well cell culture plate that contained 3 ml of appropriate media plus serum. […] Control wells received 40 μl of 5% Kollidon 17 PF alone. Seventy-two hours later, all cells were harvested by trypsinization and cell number determined electronically using a Coulter Model Z1 particle counter (Coulter Corp., Miami, Fla.) to assess cell growth inhibition. Each experiment was performed in duplicate and repeated a minimum of three times.
(§2) Cells were seeded at a density of 1-5×10^4 cells in each well of a 6 well tissue culture flask. […] After three days, cells were harvested by trypsinization and cell number determined electronically. Cell growth inhibition was determined by comparison to non-Taurolidine exposed control cultures. The IC50 was calculated as the concentration required to inhibit cell number by 50%.

Data set [1] relates to SKOV-3 human ovarian tumor cells. The description is as above. It counts as cell-based. The following applies: SK-OV-3, 72 h, SKOV-3 (ovary). Here is the method: as §1, §2
In a further data set the test system is U-251 glioma cells. The data set is described as above. Format: cell-based. The conditions noted are these: Homo sapiens, 72 h, U-251 (brain). Here is the method: as §1, §2
Data set [2] has as its system panel of human and murine tumor cell lines. The data set can be described thus: Cell growth inhibition, panel summary. The following applies: for IC50: 72 h; for cytotoxic concentration lower than that for antibacterial/antibiotic effect: versus concentrations used to inhibit bacterial cell growth. Format: cell-based. Here is the method: (§3) Parallel studies were carried out to assess whether disruption of cell adhesion played a role in the cytotoxic activity.
as §1, §2

The subject of a further data set is NIH-3T3 cells. The data set can be described thus: Phosphotidylserine externalization, Annexin-V FITC binding. It counts as cell-based, murine. The conditions noted are these: NIH-3T3, 24 h exposure, non-significant. Here is the method: Three×10^5 cells were seeded in plastic tissue culture flasks. […] Control cultures received an appropriate volume of Kollidine-17P. After an additional 24 h, cells were harvested and phosphotidylserine externalization determined by assessing Annexin-V FITC binding using cytofluorometric techniques. Each bar represents the mean±SE of four determinations. ** p≦0.01, *** p0.001
Cell membrane phosphotidylserine externalization, as a reflection of the potential induction of apoptosis, was assessed by flow cytometry methods using the ApoAlert® Annexin-V/FITC assay kit. Briefly, 1×10^6 cells were incubated for 24 h in tissue culture medium containing serum. […] Control cultures received 5% Kollidon 17 PF alone. Twenty-four hours later, all cells were harvested by trypsinization. The harvested cells were resuspended in 200 μl of binding buffer and then incubated for 5-15 min in a solution containing 1 μg/ml Annexin-V FITC at room temperature in the dark. The cells were then analyzed to quantitate Annexin-V binding by cytofluorometric techniques that utilized FACScan using the ModFit LT program with statistical analysis as described above.

Data set [3] relates to human ovarian tumor cells. Briefly: Growth of established tumor cell colonies in vitro. The following applies: 24-hour exposure to 50 μM. Format: cell-based. Here is the method: as §3

Each structure is given as a SMILES string. Where two headings read alike, the source gives them in different places.

On to `O=S1(=O)CCN(CN2CCS(=O)(=O)NC2)CN1` [Taurolidine, Bis-(1,1-dioxoperhydro-1,2,4-thiadiazinyl-4)methane], for which the IC50 with HT-29 colon tumor cells is 18.6 ± 1 µM; in data set [1], 31.6 ± 7 µM; with U-251 glioma cells, 20.1 ± 2.7 µM; in data set [2] (3 d exposure, panel of human and murine tumor cell lines, read-out: IC50s over all cell lines evaluated), 10 to 50 µM; in data set [2] (3-day exposure, human cancer cell lines, read-out: concentration required to inhibit tumor cell growth (IC50)), 12.5 to 50 µM. Also, the entries for the “cytotoxic concentration lower than that for antibacterial/antibiotic effect” value in data set [2] and in data set [2] (listed as taurolidine) were “approximately 100 fold” and “at least 1000 fold”, respectively. Also, the “increase in Annexin-V binding” value with NIH-3T3 cells is recorded as about 5%. Besides, the “cytotoxic effect against growth of established tumor cells” value in data set [3] is “significant cytotoxic effect”.

The record behind these values is US6703413B2 (Rhode Island Hospital, priority 1999, dated 2004).
